Measurements from ChEMBL document CHEMBL1126081, “Active conformation of a tumor promoter, teleocidin. A molecular dynamics study” (1992).

System: HL-60
Assay: Dose inducing HL-60 cell adhesion related to skin tumor promotion.
Type: functional, Homo sapiens

Structure (SMILES)	ED50 [M l-1]
C[C@H]1C(=O)N[C@H](CO)Cc2c[nH]c3cccc(c23)N1C (racemic)	3.7e-06
CN1c2cccc3[nH]cc(c23)C[C@@H](CO)NC(=O)[C@@H]1C(C)(C)C (racemic)	1.1e-07
CN1CC(=O)N[C@H](CO)Cc2c[nH]c3cccc1c23 (racemic)	3.9e-05
